Assay results taken from patent US20260274814A1, “THIENYL COMPOUNDS FOR THE TREATMENT OF A CENTRAL NERVOUS SYSTEM DISEASE OR DISORDER” (Coreterra Therapeutics, Inc., priority 2023, published 2026).
Where a name gives a salt, the structure may show the parent alone. Read-outs that look alike come from different tables or passages of the source.

System: mice
Test: Neuropharmacological Assay (SmartCube): automated behavioral signature of compound-treated mice compared with a database of reference drug classes
Assay type: in vivo
Conditions: for minimal effective dose: Mus musculus, ip; for minimal effective dose / MED (minimal effective dose): i.p., that dose is shown
Text: Neurosci. 2011 Sep. 9; 5: 103 (doi: 10.3389/fnins.2011.00103) (“Roberds”). As reported in Roberds, because psychiatric diseases generally result from disorders of cell-cell communication or circuitry, intact systems are useful in detecting improvement in disease-relevant endpoints. These endpoints are typically behavioral in nature, often requiring human observation and interpretation. To facilitate testing of multiple compounds for behavioral effects relevant to psychiatric disease, PsychoGenics, Inc. (Tarrytown, NY, “PGI”) developed SmartCube™ an automated system in which behaviors of compound-treated mice are captured by digital video and analyzed with computer algorithms. (D. Brunner et al. Drug Discov. Today 2002, 7:S107-S112). PGI Analytical Systems uses data from SmartCube™ to compare the behavioral signature of a test compound to a database of behavioral signatures obtained using a large set of diverse reference compounds. (The composition of the database as well as validation of the method is further described in Roberds). In this way, the neuropharmacological effects of a test compound can be predicted by similarity to major classes of compounds, such as antipsychotics, anxiolytics and antidepressants.
The SmartCube™ system produces an activity signature indicating the probability that the activity of the test compound at the administered dose matches a given class of neuropharmacological agents. (See, e.g., Roberds, FIGS. 2 and 3). The test compound is simultaneously compared against multiple classes of agents; thus, a separate probability is generated for each behavioral effect measured (e.g., anxiolytic activity, analgesic activity, etc.). In table 2 below, these probabilities are reported for each behavioral effect measured as described in Table 1 below.
Provided compounds were dissolved in a mixture of Pharmasolve™ (N-methyl-2-pyrrolidone), polyethylene glycol and propylene glycol, and were injected i.p. 15 min. before the behavioral test. For each compound, injections were administered at 3 different doses. For each behavioral effect measured, results for the 3.0 mg/kg dose are presented. The potency of many of the compounds in the table was also determined in the SmartCube™ system. Test compounds were routinely examined at dose levels of 0.3, 1, 3 and 10 mg per kg (mpk), although the dose range was increased or decreased, if necessary, to obtain a full dose response curve. A compound's minimal effective dose (MED) is a measure of the compound's potency. The MED was defined as the dose (in mpk) having 45% or more total activity in SmartCube. If only one dose was tested, that dose is shown in the MED column of Table 2 even though the dose is not known to be the MED.

[1] = dose having 45% or more total activity in SmartCube, if only one dose was tested, read-out: MED (minimal effective dose)
[2] = probability that activity matches this class of agents, 3.0 mg/kg i.p., 15 min before test
[3] = SmartCube class probability, 3.0 mg/kg i.p., 15 min before test
[4] = SmartCube probability class, 3.0 mg/kg dose, i.p. 15 min before the behavioral test
[5] = dose having 45% or more total activity in SmartCube, if only one dose was tested, hydrochloride
[6] = probability that activity matches this class of agents, 3.0 mg/kg i.p., 15 min before test, hydrochloride, 3 mg/kg

| Compound | AD [2] | AG [2] | AN [2] | AP [2] | AX [2] | CE [2] | HL [2] | MS [2] | PS [2] | SH [2] | UK [2] | MED (minimal effective dose) [5] [mpk] | AX [6] | CE [6] | AD [6] | AP [6] | also measured |
| --- | --- | --- | --- | --- | --- | --- | --- | --- | --- | --- | --- | --- | --- | --- | --- | --- | --- |
| CNC1CCc2cc(F)sc2C1 (racemic) [Compound 79, 2-fluoro-N-methyl-4,5,6,7-tetrahydrobenzothiophen-6-amine hydrochloride] | ++ (≥24%) | ND (^ <4%) | ND (^ <4%) | + (≥4%) | ++ (≥24%) | ND (^ <4%) | ND (^ <4%) | ND (^ <4%) | ND (^ <4%) | ND (^ <4%) | ND (^ <4%) |  |  |  |  |  | minimal effective dose [1]: 1 mg/kg |
| CNC1(C)CCc2cscc2C1 (racemic) [Compound 103, racemic N, 5-dimethyl-6,7-dihydro-4H-2-benzothiophen-5-amine hydrochloride] | ND (^ <4%) | ND (^ <4%) | ND (^ <4%) | ND (^ <4%) | ND (^ <4%) | ND (^ <4%) | ND (^ <4%) | ND (^ <4%) | ND (^ <4%) | ND (^ <4%) | +++ (≥49%) |  |  |  |  |  | minimal effective dose [1]: 1 mg/kg |
| CNC1(C)COc2c(C)csc2C1 (racemic) [Compound 238, N, 3,6-trimethyl-6,7-dihydro-5H-thieno[3,2-b]pyran-6-amine hydrochloride] |  |  |  |  |  |  |  |  |  |  |  |  |  |  |  |  | minimal effective dose (minimal effective dose: dose having 45% or more total activity in SmartCube, if only one dose tested, read-out: MED): > 3 mg/kg; AD [3]: ND (^ <4%); AG [3]: ND (^ <4%); AN [3]: ND (^ <4%); AP [3]: ND (^ <4%); AX [3]: ND (^ <4%); CE [3]: ND (^ <4%); HL [3]: ND (^ <4%); MS [3]: ND (^ <4%); PS [3]: ND (^ <4%); SH [3]: ND (^ <4%); UK [3]: ++ (≥24%) |
| CNC1COc2scc(C(F)(F)F)c2C1 (racemic) [Compound 288, N-methyl-5-(trifluoromethyl)-3,4-dihydro-2H-thieno[2,3-b]pyran-3-amine hydrochloride] |  |  |  |  |  |  |  |  |  |  |  |  |  |  |  |  | minimal effective dose (minimal effective dose: dose having 45% or more total activity in SmartCube, if only one dose was tested, read-out: MED): > 3 mg/kg; AD [4]: ND (^ <4%); AG [4]: ND (^ <4%); AN [4]: ND (^ <4%); AP [4]: ND (^ <4%); AX [4]: ND (^ <4%); CE [4]: ND (^ <4%); HL [4]: ND (^ <4%); MS [4]: ND (^ <4%); PS [4]: ND (^ <4%); SH [4]: ND (^ <4%); UK [4]: ND (^ <4%) |
| CNC1CCc2ccsc2C1.Cl (single isomer, unassigned) [Compound 9, N-methyl-4,5,6,7-tetrahydrobenzothiophen-6-amine hydrochloride] | ++ (≥24%) | ND (^ <4%) | ND (^ <4%) | ++ (≥24%) |  |  |  | ND (^ <4%) |  |  | ND (^ <4%) | 0.1 | + (≥4%) | + (≥4%) |  |  | HL [6]: + (≥4%); PS [6]: + (≥4%) |
| CNC1CCc2ccsc2C1.Cl (single isomer, unassigned) [Compound 10, N-methyl-4,5,6,7-tetrahydrobenzothiophen-6-amine hydrochloride] | ++ (≥24%) | ND (^ <4%) | ND (^ <4%) | ++ (≥24%) |  |  |  | ND (^ <4%) |  | ND (^ <4%) | ND (^ <4%) | 0.3 | ND (^ <4%) | ND (^ <4%) |  |  | HL [6]: ND (^ <4%); PS [6]: ND (^ <4%) |
| CNC1CCc2sccc2C1.Cl (single isomer, unassigned) [Compound 11, N-methyl-4,5,6,7-tetrahydrobenzothiophen-5-amine hydrochloride] |  | ND (^ <4%) | ND (^ <4%) |  |  | ND (^ <4%) | ND (^ <4%) | ND (^ <4%) | ND (^ <4%) | ND (^ <4%) | ND (^ <4%) | 0.3 | ND (^ <4%) |  | ND (^ <4%) | ++++ (≥74%) |  |
| CNC1CCc2sccc2C1.Cl (single isomer, unassigned) [Compound 12, N-methyl-4,5,6,7-tetrahydrobenzothiophen-5-amine hydrochloride] |  | ND (^ <4%) | ND (^ <4%) |  |  | ND (^ <4%) | ND (^ <4%) | ND (^ <4%) | ND (^ <4%) | ND (^ <4%) | ND (^ <4%) | 1.0 | ++ (≥24%) |  | ++ (≥24%) | + (≥4%) |  |
| CNC1CCc2cscc2C1.Cl (single isomer, unassigned) [Compound 13, N-methyl-4,5,6,7-tetrahydro-2-benzothiophen-5-amine hydrochloride] |  | ND (^ <4%) | ND (^ <4%) |  | + (≥4%) |  | ND (^ <4%) | ND (^ <4%) | ND (^ <4%) | ND (^ <4%) | ND (^ <4%) |  |  | + (≥4%) | ND (^ <4%) | +++ (≥49%) | minimal effective dose [1]: 0.3 mg/kg |
| CNC1CCc2cscc2C1.Cl (single isomer, unassigned) [Compound 14, N-methyl-4,5,6,7-tetrahydro-2-benzothiophen-5-amine hydrochloride] |  | ND (^ <4%) | ND (^ <4%) |  | + (≥4%) |  | ND (^ <4%) | ND (^ <4%) | ND (^ <4%) | ND (^ <4%) | ND (^ <4%) |  |  | ND (^ <4%) | ++ (≥24%) | + (≥4%) | MED (minimal effective dose) (dose having 45% or more total activity in SmartCube, if only one dose was tested): 0.3 mpk |
| CN(C)C1CCc2ccsc2C1.Cl (single isomer, unassigned) [Compound 15, N,N-dimethyl-4,5,6,7-tetrahydrobenzothiophen-6-amine hydrochloride] | ND (^ <4%) | ND (^ <4%) | ND (^ <4%) |  |  |  | ND (^ <4%) | ND (^ <4%) | ND (^ <4%) | ND (^ <4%) | ND (^ <4%) | 0.3 | +++ (≥49%) | ++ (≥24%) |  | + (≥4%) |  |
| CN(C)C1CCc2ccsc2C1.Cl (single isomer, unassigned) [Compound 16, N,N-dimethyl-4,5,6,7-tetrahydrobenzothiophen-6-amine hydrochloride] | ND (^ <4%) | ND (^ <4%) | ND (^ <4%) |  |  |  | ND (^ <4%) | ND (^ <4%) | ND (^ <4%) | ND (^ <4%) | ND (^ <4%) | 1.0 | ++++ (≥74%) | ND (^ <4%) |  | ND (^ <4%) |  |
| Cl.c1cc2c(s1)CC(N1CCCC1)CC2 (single isomer, unassigned) [Compound 17, 1-(4,5,6,7-tetrahydrobenzothiophen-6-yl)pyrrolidine hydrochloride] |  | ND (^ <4%) | ND (^ <4%) |  |  | ND (^ <4%) | ND (^ <4%) | ND (^ <4%) | ND (^ <4%) | ND (^ <4%) | ND (^ <4%) | 1.0 | ++++ (≥74%) |  | ND (^ <4%) | +++ (≥49%) |  |
